Reference: US11905244B2, “Chemical modulators of store-operated calcium channels and their therapeutic applications” (The Texas A&M University System, priority 2017, dated 2024)
“Also recorded” adds a separate entry of the source. Read-outs that look alike come from different tables or passages of the source.

Key:
CRAC channel = CRAC channel (Homo sapiens (Human), UniProt Q96D31); assay: GFP-NFAT translocation-based high-content screening (TG-stimulated HeLa cells stably expressing GFP-NFAT); assay type: cell-based; conditions: for Inhibitory activity on CRAC channel in primary screening (NFAT nucleus-to-cytosol ratio): 200 μM compound
Chain of CRAC channel (Q96D31 whole entry): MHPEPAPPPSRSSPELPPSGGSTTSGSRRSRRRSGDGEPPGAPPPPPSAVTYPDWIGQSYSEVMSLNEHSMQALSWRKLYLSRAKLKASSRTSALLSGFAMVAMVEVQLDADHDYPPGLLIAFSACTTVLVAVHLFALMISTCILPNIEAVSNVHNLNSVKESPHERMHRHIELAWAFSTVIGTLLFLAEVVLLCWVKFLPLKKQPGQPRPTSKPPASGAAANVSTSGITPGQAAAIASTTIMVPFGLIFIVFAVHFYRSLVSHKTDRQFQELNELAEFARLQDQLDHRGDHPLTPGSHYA
Description: It is known that thapsigargin (TG) can induce the CRAC channel to open resulting in the calcium influx. The elevation of calcium in cytoplasm can activate the Ca^2+-calcineurin-NFAT pathway followed by NFAT translocation from the cytoplasm to the nucleus to regulate gene transcription. Therefore, the inventors built a GFP-NFAT translocation-based high-content screening method to evaluate the activity of compounds on CRAC channel. Briefly, a HeLa cell line stably expressing GFP-NFAT was established and used, and the images after chemical stimulation in the presence of TG were acquired using an IN Cell Analyzer 6000 confocal laser imaging system, and then the GFP fluorescent intensity ratio between cytoplasm and nucleus was analyzed to reflect the inhibitory activity of compound on CRAC channel.
Briefly, GFP-NFAT stable cells were cultured in Dulbecco's modified eagle's medium (DMEM) supplemented with 10% FBS in 5% carbon dioxide at 37° C. When it reached 90% confluency, a cell suspension with a concentration of […] was prepared, and an amount of 2000 cells per well (25 μL/well) was seeded in 384 well plate, putting it at the room temperature for 1 h to make sure the cells distribute evenly, then the cells were incubated overnight. First, primary screening of the selected compounds was conducted. A series of compound solutions with a concentration of 200 μM in MEDM medium were prepared in a 96 well plate and then added to a 384 well plate using a Beckman Coulter automatic drug adding system, in 4 duplicates, and incubated for 30 min at 37° C. SKF was selected as the positive control. Then, 1 μM TG and 1 mM Ca^2+ were added to 384-well plate using Beckman Coulter automatic drug adding system and incubated for 20 min. Subsequently, 384 well plate was gently washed with PBS twice, and the cells were fixed with 4% PFA (25 μl per well) for 10˜15 mins at room temperature, then washed with PBS gently, added 0.5% Triton X-100 (25 μL per well), and incubated for 5 mins aFt room temperature, stained with DAPI (1 μg/mL) for 5˜10 mins at room temperature, washed with PBS and added 30 μL PBS per well to image on confocal laser imaging system (objective lens: 10×, FITC and UV). Using Pipeline Plot software (NAFT translocation protocol), the intensity of green fluorescence was analyzed in nucleus and cytosol, calculate the ratio of nucleus:cytosol, normalize TG stimulate NFAT translocation as 1 and no TG adding as 0. Finally, the data was analyzed using GraphPad Prism 5 software.

calcium influx = assay: Inhibitory activity on calcium influx; assay type: cell-based
[1] = tested on: cytokine IL-2 expression in primary T cells; assay: Effect of compounds on cytokine expression in primary T cells (flow cytometry); assay type: cell-based; conditions: Mus musculus, T-cell
Protocol: The lymph nodes and a spleen from mouse were collected, and then the immune cells were induced to differentiate towards Th1 cells in presence of α-CD3, α-CD28, IL-12, and IL-2. After obtaining Th1 cells, the cells were amplified and then the cells were treated with drugs. The expression level of the cytokine was analyzed using flow cytometry.

[2] = tested on: IL-2 and IFNγ expression in Jurkat cell; assay: Cytokine expression in Jurkat cells; assay type: cell-based
[3] = tested on: MDA-MB-231 breast cancer cells; assay: Migration assay (wound healing assay); assay type: cell-based; conditions: MDA-MB-231, wound healing assay
Protocol: The effect of compounds on inhibiting migration was evaluated using wound healing assay. Briefly, cells were seeded in a six well-plate, and a wound was generated by scratching the cell monolayer with a 200 μL pipette tip. Then, cells were continued to be cultured in the presence or absence of compounds, and the photographic recording was performed at 0 h, 24 h, and 48 h respectively. The number of the migrated cells was calculated with ImageJ software.

[4] = tested on: MDA-MB-231 breast cancer cells; assay: Invasion assay; assay type: cell-based
[5] = tested on: azoxymethane (AOM)-induced mouse colon cancer model; assay: Azoxymethane (AOM)-induced mouse colon cancer model; assay type: in vivo; conditions: treated for 8 weeks
Protocol: To induce colon cancer in situ, mice (four month old) were randomly divided into three groups: (1) AOM control group; (2) Compound 53 group, (3) CsA group, and injected with AOM subcutaneously (10 mg/kg body weight) once a week for 4 weeks. Then, Compound 53 and CsA group were treated with Compound 53 and CsA respectively for 8 weeks, and the control group was treated with 0.9% NaCl solution. Then, mice were killed and the colon was isolated. The number of the tumors formed was analyzed.

Jurkat cells = assay: Cell cycle analysis in Jurkat cells; assay type: cell-based; conditions: compared to control
Protocol: (§1) Cells were treated with or without compounds at 37° C. with 5% CO2. After incubation for 24 h, cells were collected by trypsinization and fixed with cold 95% ethanol over 30 min at 4° C. Subsequently, the cell suspension was centrifuged at 1000 rmp/5 min, and washed with PBS one time. The cell pellets were resuspended in 0.4 mL PBS and treated with RNAase A (0.1 mg/mL) at 37° C. for 30 min. Then, propidium iodine (50 μg/mL, PI) was added and the cells were stained for 30 min at 37° C. Analysis of cellular DNA content was performed by flow cytometry.

U87 cells = assay: Cell cycle analysis in U87 cells; assay type: cell-based; conditions: compared to control
Protocol: as §1

[6] = GFP-NFAT translocation assay, read-out: IC50 on CRAC channel
[7] = Table 2, unit inferred, read-out: IC50 of the compounds (inhibitory activity on CRAC channel)

IC50 (CRAC channel; [7]) [µM]	SMILES	further results
13	COC(=O)c1ccc(N2C(=O)CC(S/C(=N\c3ccccc3)NCCc3ccc(S(N)(=O)=O)cc3)C2=O)cc1 (stereo not shown) [Compound 53]	Inhibitory activity on CRAC channel in primary screening (NFAT nucleus-to-cytosol ratio) (CRAC channel): good inhibition; IC50 (CRAC channel; [6]): 8.14 µM; IC50 [1]: 15.6 ± 1.17 µM; IL-2 and IFNγ (cytokine) expression [2]: inhibit IL-2 and IFNγ expression; also recorded: inhibits cytokine expression; Cell migration [3]: greatly inhibit; Cell invasion [4]: greatly inhibit; Antitumor activity compared with positive control drug CsA [5]: better than the positive control drug CsA; Number of the formed tumors in the colon [5]: greatly decrease the number of the formed tumors; also recorded: reducing the number of tumors formed compared to the control group
10.5	CCN/C(=N/c1ccc2c(c1)OCO2)SC1CC(=O)N(c2ccc(C(=O)OC)cc2)C1=O (stereo not shown) [Compound 66]	Inhibitory activity on CRAC channel in primary screening (NFAT nucleus-to-cytosol ratio) (CRAC channel): good inhibition; Cell migration [3]: greatly inhibit
> 200	CCN/C(=N\c1ccccc1)SC1CC(=O)N(c2ccc(C(=O)NC)cc2)C1=O (stereo not shown) [Compound 90]	–
> 200	CNC(=O)c1ccc(N2C(=O)CC(S/C(=N/c3ccccc3)NC(C)C)C2=O)cc1 (stereo not shown) [Compound 93]	–
> 200	CNC(=O)c1ccc(N2C(=O)CC(S/C(=N/c3ccccc3)NC(C)(C)C)C2=O)cc1 (stereo not shown) [Compound 95]	–
10.9	NS(=O)(=O)c1ccc(CCN/C(=N\c2ccccc2)SC2CC(=O)N(c3ccccc3)C2=O)cc1 (stereo not shown) [Compound 96]	–
> 200	NS(=O)(=O)c1ccc(CCNC(=S)Nc2cccnc2)cc1 [Compound 97]	–
18.2	CNC(=O)c1ccc(N2C(=O)CC(S/C(=N/c3ccccc3)NCCc3ccc(S(N)(=O)=O)cc3)C2=O)cc1 (stereo not shown) [Compound 99]	–
11.2	COC(=O)c1ccc(N2C(=O)CC(S/C(=N/c3cccc(OC)c3)NCCc3ccc(S(N)(=O)=O)cc3)C2=O)cc1 (stereo not shown) [Compound 101]	–
9.2	COC(=O)c1ccc(N2C(=O)CC(S/C(=N/c3ccc(C)cc3)NCCc3ccc(S(N)(=O)=O)cc3)C2=O)cc1 (stereo not shown) [Compound 102]	–
> 200	NS(=O)(=O)c1ccc(CCNC(=S)Nc2cccc3ccccc23)cc1 [Compound 104]	–
> 200	COc1ccc(N2C(=O)CC(S/C(=N/c3ccc(C)cc3)NCCc3ccc(S(N)(=O)=O)cc3)C2=O)cc1 (stereo not shown) [Compound 105]	–
> 200	CCOC(=O)c1ccc(N2C(=O)CC(S/C(=N/c3ccc(OC)cc3)NCCc3ccc(S(N)(=O)=O)cc3)C2=O)cc1 (stereo not shown) [Compound 107]	–
> 200	COc1ccc(/N=C(\NCCc2ccc(S(N)(=O)=O)cc2)SC2CC(=O)N(c3ccc(OC)cc3)C2=O)cc1 (stereo not shown) [Compound 108]	–
> 200	COc1ccc(N2C(=O)CC(S/C(=N/c3cc(OC)ccc3OC)NCCc3ccc(S(N)(=O)=O)cc3)C2=O)cc1 (stereo not shown) [Compound 109]	–
> 200	CCOC(=O)c1ccc(N2C(=O)CC(S/C(=N/c3cc(OC)ccc3OC)NCCc3ccc(S(N)(=O)=O)cc3)C2=O)cc1 (stereo not shown) [Compound 110]	–
1.6	COc1ccc(/N=C(\NCCc2ccc(S(N)(=O)=O)cc2)SC2CC(=O)N(c3ccccc3)C2=O)cc1 (stereo not shown) [Compound 111]	–
5.84	Cc1ccc(/N=C(\NCCc2ccc(S(N)(=O)=O)cc2)SC2CC(=O)N(c3ccc(C)cc3)C2=O)cc1 (stereo not shown) [Compound 115]	–
> 200	Cc1ccc(N2C(=O)CC(Sc3nc4ccccc4n3CCc3ccc(S(N)(=O)=O)cc3)C2=O)cc1 (stereo not shown) [Compound 119]	–

Second part, the compound before the results:

SMILES	IC50 (CRAC channel; [7]) [µM]	further results
CCN/C(=N\c1cc(Cl)cc(Cl)c1)S[C@H]1CC(=O)N(c2ccc(C(=O)O)cc2)C1=O [Compound 41]	–	Inhibitory activity on CRAC channel in primary screening (NFAT nucleus-to-cytosol ratio) (CRAC channel): good activity; IC50 (CRAC channel; [6]): ~100 µM; IC50 (CRAC channel; Table 1, hits from virtual screening, unit inferred, read-out: IC50 Value): 279 µM; Inhibitory activity on calcium influx (calcium influx): obvious inhibitory activity
CN/C(=N/c1cc(Cl)ccc1Cl)SC1CC(=O)N(c2ccc(C(=O)OC)cc2)C1=O (stereo not shown) [Compound 65]	30.6	Inhibitory activity on CRAC channel in primary screening (NFAT nucleus-to-cytosol ratio) (CRAC channel): good inhibition; Cell migration [3]: greatly inhibit
CCOC(=O)c1ccc(N2C(=O)CC(S/C(=N/c3ccccc3)NC3CC3)C2=O)cc1 (stereo not shown) [Compound 87]	0.95	IC50 [1]: 0.86 ± 0.12 µM; Effect on cell cycle (Jurkat cells): cell cycle arrest at GO stage; Effect on cell cycle (U87 cells): cell cycle arrest at GO stage; Cell migration [3]: greatly inhibit; Cell invasion [4]: greatly inhibit
CCOC(=O)c1ccc(N2C(=O)CC(S/C(=N/c3ccccc3)NC(C)(C)C)C2=O)cc1 (stereo not shown) [Compound 88]	> 200	–
CNC(=O)c1ccc(N2C(=O)CC(S/C(=N/c3ccccc3)NC)C2=O)cc1 (stereo not shown) [Compound 89]	> 200	–
CCCN/C(=N\c1ccccc1)SC1CC(=O)N(c2ccc(C(=O)NC)cc2)C1=O (stereo not shown) [Compound 91]	> 200	–
CCCCN/C(=N\c1ccccc1)SC1CC(=O)N(c2ccc(C(=O)NC)cc2)C1=O (stereo not shown) [Compound 92]	> 200	–
CNC(=O)c1ccc(N2C(=O)CC(S/C(=N/c3ccccc3)NC3CC3)C2=O)cc1 (stereo not shown) [Compound 94]	> 200	–
COC(=O)c1ccc(N2C(=O)CC(S/C(=N/c3cc(OC)ccc3OC)NCCc3ccc(S(N)(=O)=O)cc3)C2=O)cc1 (stereo not shown) [Compound 98]	21.2	–
COC(=O)c1ccc(N2C(=O)CC(S/C(=N/c3ccc(OC)cc3)NCCc3ccc(S(N)(=O)=O)cc3)C2=O)cc1 (stereo not shown) [Compound 100]	14.8	–
CCOC(=O)c1ccc(N2C(=O)CC(S/C(=N/c3ccccc3)NCCc3ccc(S(N)(=O)=O)cc3)C2=O)cc1 (stereo not shown) [Compound 103]	15.8	–
COc1ccc(N2C(=O)CC(S/C(=N/c3ccccc3)NCCc3ccc(S(N)(=O)=O)cc3)C2=O)cc1 (stereo not shown) [Compound 106]	5.01	–
COc1ccc(OC)c(/N=C(\NCCc2ccc(S(N)(=O)=O)cc2)SC2CC(=O)N(c3ccccc3)C2=O)c1 (stereo not shown) [Compound 112]	0.2	–
Cc1ccc(/N=C(\NCCc2ccc(S(N)(=O)=O)cc2)SC2CC(=O)N(c3ccccc3)C2=O)cc1 (stereo not shown) [Compound 113]	5.83	–
COc1ccc(/N=C(\NCCc2ccc(S(N)(=O)=O)cc2)SC2CC(=O)N(c3ccc(C)cc3)C2=O)cc1 (stereo not shown) [Compound 114]	> 200	–
CCOC(=O)c1ccc(N2C(=O)CC(S/C(=N/c3ccc(C)cc3)NCCc3ccc(S(N)(=O)=O)cc3)C2=O)cc1 (stereo not shown) [Compound 116]	> 200	–
CCOC(=O)c1ccc(N2C(=O)CC(Sc3nc4ccccc4n3CCc3ccc(S(N)(=O)=O)cc3)C2=O)cc1 (stereo not shown) [Compound 117]	> 200	–
COc1ccc(N2C(=O)CC(Sc3nc4ccccc4n3CCc3ccc(S(N)(=O)=O)cc3)C2=O)cc1 (stereo not shown) [Compound 118]	> 200	–
COc1ccc(N2C(=O)CC(Br)C2=O)cc1 (stereo not shown) [Compound 120]	> 200	–
